From patent publication US10780090B2, “Heteroaryl compounds useful as inhibitors of SUMO activating enzyme” (Millennium Pharmaceuticals, Inc., priority 2014, dated 2020)

Target: recombinant human SAE enzyme (Homo sapiens (Human), UniProt Q9UBT2)
Assay: SAE HTRF enzyme assay
Format: biochemical
Details: for inhibition at 0.111 µM: read-out: Percent Inhibition
Procedure, shortened: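 HTRF read-out using Eu-cryptate anti-Flag and allophycocyanin anti-GST antibodies, added with EDTA stop buffer and read after 2 h at 24 °C. The preceding reaction ran 105 min at 24 °C: 0.11 nM recombinant SAE, 0.5 μM ATP, Sumo-Flag, Ubc9-GST, pH 7.5. Values given as single-concentration inhibition or IC50.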

[1] = SAE inhibition at compound concentration 0.111 μM
[2] = SAE inhibition, class symbols, legend in nM

Chain of recombinant human SAE enzyme (Q9UBT2 whole entry): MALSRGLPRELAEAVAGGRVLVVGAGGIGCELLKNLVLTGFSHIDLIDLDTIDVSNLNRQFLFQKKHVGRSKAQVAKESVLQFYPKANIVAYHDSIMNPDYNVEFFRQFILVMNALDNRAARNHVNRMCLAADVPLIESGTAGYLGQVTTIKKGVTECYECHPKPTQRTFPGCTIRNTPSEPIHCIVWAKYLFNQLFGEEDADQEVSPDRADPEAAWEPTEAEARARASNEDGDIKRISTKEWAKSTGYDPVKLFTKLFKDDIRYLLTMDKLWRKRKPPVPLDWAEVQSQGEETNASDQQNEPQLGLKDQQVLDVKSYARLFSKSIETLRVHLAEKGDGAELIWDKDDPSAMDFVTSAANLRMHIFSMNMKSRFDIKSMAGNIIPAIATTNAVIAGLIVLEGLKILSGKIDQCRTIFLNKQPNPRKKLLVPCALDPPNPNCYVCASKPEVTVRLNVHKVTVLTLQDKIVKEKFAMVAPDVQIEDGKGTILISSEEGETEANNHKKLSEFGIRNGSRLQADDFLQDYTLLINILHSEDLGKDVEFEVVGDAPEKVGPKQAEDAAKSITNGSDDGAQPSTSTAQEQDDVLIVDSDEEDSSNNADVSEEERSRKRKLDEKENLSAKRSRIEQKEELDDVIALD
Chain of recombinant human SAE enzyme (Q9UBE0 whole entry partner): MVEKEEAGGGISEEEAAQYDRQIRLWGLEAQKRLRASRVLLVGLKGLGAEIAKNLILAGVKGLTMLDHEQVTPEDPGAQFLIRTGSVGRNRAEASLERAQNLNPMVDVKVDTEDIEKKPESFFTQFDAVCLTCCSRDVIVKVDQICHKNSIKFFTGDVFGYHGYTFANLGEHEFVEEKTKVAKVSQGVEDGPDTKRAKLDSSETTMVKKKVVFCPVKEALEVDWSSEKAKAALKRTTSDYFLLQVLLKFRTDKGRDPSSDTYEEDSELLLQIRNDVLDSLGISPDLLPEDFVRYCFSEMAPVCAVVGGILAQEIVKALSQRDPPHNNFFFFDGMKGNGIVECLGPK

| Compound | Percent Inhibition (Concentration 0.111 μM) | IC50 (class symbols A/B/C) [nM] | Percent Inhibition [1] [%] | IC50 [2] [nM] | inhibition at 0.111 µM (Concentration 0.111 μM) [%] |
| --- | --- | --- | --- | --- | --- |
| CO[C@@H](c1cccc(Br)c1)c1csc(C(=O)c2cncnc2N[C@@H]2C[C@H](COS(N)(=O)=O)[C@@H](O)C2)c1 (single isomer, unassigned) [I-73a, [(1R,2S,4R)-4-{[({(4-[(S)-(3-Bromophenyl)(methoxy)methyl]-2-thienyl}carbonyl)pyrimidin-4-yl]amino}-2-hydroxycyclopentyl]methyl sulfamate or [(1R,2S,4R)-4-{[5-({4-[(R)-(3-Bromophenyl)(methoxy)methyl]-2-thienyl}carbonyl)pyrimidin-4-yl]amino}-2-hydroxycyclopentyl]methyl sulfamate] | 98 | < 10 |  |  |  |
| NS(=O)(=O)OC[C@H]1C[C@@H](Nc2ncncc2C(=O)c2cc([C@@H]3NCc4ccc(Cl)cc43)c(Cl)s2)C[C@@H]1O (single isomer, unassigned) [I-262b, [(1R,2S,4R)-4-{[5-({5-chloro-4-[(1R)-6-chloro-2,3-dihydro-1H-isoindol-1-yl]-2-thienyl}carbonyl)pyrimidin-4-yl]amino}-2-hydroxycyclopentyl]methyl sulfamate or [(1R,2S,4R)-4-{[5-({5-chloro-4-[(1S)-6-chloro-2,3-dihydro-1H-isoindol-1-yl]-2-thienyl}carbonyl)pyrimidin-4-yl]amino}-2-hydroxycyclopentyl]methyl sulfamate] | 98 | < 10 |  |  |  |
| Cc1oc(C(=O)c2cncnc2N[C@@H]2C[C@H](COS(N)(=O)=O)[C@@H](O)C2)cc1[C@@H]1OCCc2ccc(Cl)cc21 (single isomer, unassigned) [I-270b, {(1R,2S,4R)-4-[(5-{4-[(1R)-7-chloro-3,4-dihydro-1H-isochromen-1-yl]-5-methyl-2-furoyl}pyrimidin-4-yl)amino]-2-hydroxycyclopentyl}methyl sulfamate or {(1R,2S,4R)-4-[(5-{4-[(1S)-7-chloro-3,4-dihydro-1H-isochromen-1-yl]-5-methyl-2-furoyl}pyrimidin-4-yl)amino]-2-hydroxycyclopentyl}methyl sulfamate] | 99 | < 10 |  |  |  |
| Cc1sc(C(=O)c2cncnc2N[C@@H]2C[C@H](COS(N)(=O)=O)[C@@H](O)C2)cc1[C@@H]1OCCc2ccc(Cl)nc21 (single isomer, unassigned) [I-286b, [(1R,2S,4R)-4-{[5-({4-[(8S)-2-chloro-5,8-dihydro-6H-pyrano[3,4-b]pyridin-8-yl]-5-methyl-2-thienyl}carbonyl)pyrimidin-4-yl]amino}-2-hydroxycyclopentyl]methyl sulfamate or [(1R,2S,4R)-4-{[5-({4-[(8R)-2-chloro-5,8-dihydro-6H-pyrano[3,4-b]pyridin-8-yl]-5-methyl-2-thienyl}carbonyl)pyrimidin-4-yl]amino}-2-hydroxycyclopentyl]methyl sulfamate] |  |  | 99 | < 10 |  |
| Cc1oc(C(=O)c2cncnc2N[C@@H]2C[C@H](COS(N)(=O)=O)[C@@H](O)[C@@H]2F)cc1Cc1cccc(Br)c1 [I-64, [(1R,2R,3R,4R)-4-({5-[4-(3-bromobenzyl)-5-methyl-2-furoyl]pyrimidin-4-yl}amino)-3-fluoro-2-hydroxycyclopentyl]methyl sulfamate] |  | < 10 |  |  | 99 |
| Cc1sc(C(=O)c2cncnc2N[C@@H]2C[C@H](COS(N)(=O)=O)[C@@H](O)C2)cc1[C@@H]1OCC(F)(F)c2ccc(Cl)cc21.Cc1sc(C(=O)c2cncnc2N[C@@H]2C[C@H](COS(N)(=O)=O)[C@@H](O)C2)cc1[C@H]1OCC(F)(F)c2ccc(Cl)cc21 (mixture of isomers) [I-288, [(1R,2S,4R)-4-{[5-({4-[(1R)-7-chloro-4,4-difluoro-3,4-dihydro-1H-isochromen-1-yl]-5-methyl-2-thienyl}carbonyl)pyrimidin-4-yl]amino}-2-hydroxycyclopentyl]methyl sulfamate and [(1R,2S,4R)-4-{[5-({4-[(1S)-7-chloro-4,4-difluoro-3,4-dihydro-1H-isochromen-1-yl]-5-methyl-2-thienyl}carbonyl)pyrimidin-4-yl]amino}-2-hydroxycyclopentyl]methyl sulfamate] |  |  | 99 | < 10 |  |
| NS(=O)(=O)OC[C@H]1C[C@@H](Nc2ncncc2C(=O)c2cc([C@@H]3OCc4ccc(Cl)cc43)c(Cl)s2)C[C@@H]1O (single isomer, unassigned) [I-310a, [(1R,2S,4R)-4-{[5-({5-chloro-4-[(1R)-6-chloro-1,3-dihydro-2-benzofuran-1-yl]-2-thienyl}carbonyl)pyrimidin-4-yl]amino}-2-hydroxycyclopentyl]methyl sulfamate or [(1R,2S,4R)-4-{[5-({5-chloro-4-[(1S)-6-chloro-1,3-dihydro-2-benzofuran-1-yl]-2-thienyl}carbonyl)pyrimidin-4-yl]amino}-2-hydroxycyclopentyl]methyl sulfamate] |  |  | 27 | 100 to 1000 |  |
| CO[C@H](c1cccc(Cl)c1)c1cc(C(=O)c2cncnc2N[C@@H]2C[C@H](COS(N)(=O)=O)[C@@H](O)C2)sc1Cl (single isomer, unassigned) [I-90a, [(1R,2S,4R)-4-{[5-({5-chloro-4-[(R)-(3-chlorophenyl)(methoxy)methyl]-2-thienyl}carbonyl)pyrimidin-4-yl]amino}-2-hydroxycyclopentyl]methyl sulfamate or [(1R,2S,4R)-4-{[5-({5-chloro-4-[(S)-(3-chlorophenyl)(methoxy)methyl]-2-thienyl}carbonyl)pyrimidin-4-yl]amino}-2-hydroxycyclopentyl]methyl sulfamate] | 98 | < 10 |  |  |  |
| NS(=O)(=O)OC[C@H]1C[C@@H](Nc2ncncc2C(=O)c2cc(CC3=CCOCC3)cs2)C[C@@H]1O [I-196, {(1R,2S,4R)-4-[(5-{[4-(3,6-dihydro-2H-pyran-4-ylmethyl)-2-thienyl]carbonyl}pyrimidin-4-yl)amino]-2-hydroxycyclopentyl}methyl sulfamate] |  | 10 to 100 |  |  | 63 |
| Cc1oc(C(=O)c2cncnc2N[C@@H]2C[C@H](COS(N)(=O)=O)[C@@H](O)C2)cc1[C@@H]1OCCc2ccc(Cl)cc21 (single isomer, unassigned) [I-270a, {(1R,2S,4R)-4-[(5-{4-[(1R)-7-chloro-3,4-dihydro-1H-isochromen-1-yl]-5-methyl-2-furoyl}pyrimidin-4-yl)amino]-2-hydroxycyclopentyl}methyl sulfamate or {(1R,2S,4R)-4-[(5-{4-[(1S)-7-chloro-3,4-dihydro-1H-isochromen-1-yl]-5-methyl-2-furoyl}pyrimidin-4-yl)amino]-2-hydroxycyclopentyl}methyl sulfamate] | 79 | 10 to 100 |  |  |  |
| CN[C@H](c1cccc(Cl)c1)c1csc(C(=O)c2cncnc2N[C@@H]2C[C@H](COS(N)(=O)=O)[C@@H](O)C2)c1 (single isomer, unassigned) [I-47b, [(1R,2S,4R)-4-{[5-({4-[(R)-(3-chlorophenyl)(methylamino)methyl]-2-thienyl}carbonyl)pyrimidin-4-yl]amino}-2-hydroxycyclopentyl]methyl sulfamate or [(1R,2S,4R)-4-{[5-({4-[(S)-(3-chlorophenyl)(methylamino)methyl]-2-thienyl}carbonyl)pyrimidin-4-yl]amino}-2-hydroxycyclopentyl]methyl sulfamate] | 99 | < 10 |  |  |  |
| C[C@](N)(c1cccc(Br)c1)c1csc(C(=O)c2cncnc2N[C@@H]2C[C@H](COS(N)(=O)=O)[C@@H](O)[C@H]2O)c1 (single isomer, unassigned) [I-27b, [(1R,2R,3S,4R)-4-{[5-({4-[(1S)-1-amino-1-(3-bromophenyl)ethyl]-2-thienyl}carbonyl)pyrimidin-4-yl]amino}-2,3-dihydroxycyclopentyl]methyl sulfamate or [(1R,2R,3S,4R)-4-{[5-({4-[(1R)-1-amino-1-(3-bromophenyl)ethyl]-2-thienyl}carbonyl)pyrimidin-4-yl]amino}-2,3-dihydroxycyclopentyl]methyl sulfamate] | 101 | < 10 |  |  |  |
| NS(=O)(=O)OC[C@H]1C[C@@H](Nc2ncncc2C(=O)c2cc(Cc3ccccc3)c(Cl)s2)[C@@H](F)[C@@H]1O [I-162, [(1R,2R,3R,4R)-4-({5-[(4-Benzyl-5-chloro-2-thienyl)carbonyl]pyrimidin-4-yl}amino) 3-fluoro-2-hydroxycyclopentyl]methyl sulfamate] |  | 10 to 100 |  |  | 91 |
| N[C@H](c1cccc(Cl)c1)c1csc(C(=O)c2cncnc2N[C@@H]2C[C@H](COS(N)(=O)=O)[C@@H](O)C2)c1 (mixture of isomers) [I-36, [(1R,2S,4R)-4-{[5-({4-[(R)-amino(3-chlorophenyl)methyl]-2-thienyl}carbonyl)pyrimidin-4-yl]amino}-2-hydroxycyclopentyl]methyl sulfamate and [(1R,2S,4R)-4-{[5-({4-[(S)-amino(3-chlorophenyl)methyl]-2-thienyl}carbonyl)pyrimidin-4-yl]amino}-2-hydroxycyclopentyl]methyl sulfamate] | 100 | < 10 |  |  |  |
| CC(N)(c1cccc(Cl)c1)c1csc(C(=O)c2cncnc2N[C@@H]2C[C@H](COS(N)(=O)=O)[C@@H](O)[C@H]2O)c1 (single isomer, unassigned) [I-8a, [(1R,2R,3S,4R)-4-{[5-({4-[(1S)-1-amino-1-(3-chlorophenyl)ethyl]-2-thienyl}carbonyl)pyrimidin-4-yl]amino}-2,3-dihydroxycyclopentyl]methyl sulfamate or [(1R,2R,3S,4R)-4-{[5-({4-[(1R)-1-amino-1-(3-chlorophenyl)ethyl]-2-thienyl}carbonyl)pyrimidin-4-yl]amino}-2,3-dihydroxycyclopentyl]methyl sulfamate] | 96 | < 10 |  |  |  |
